Measured values: ChEMBL document CHEMBL1201862, “PubChem BioAssay data set” (2004)
The source made the active and inactive calls.

Key:
[1] = target: T1, Cysteine protease ATG4B (Homo sapiens, UniProt Q9Y4P1); type: functional;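 note: Fluorescence-based dose-response confirmation assay measuring inhibition of ATG4B activity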
T1 sequence (Q9Y4P1 whole entry): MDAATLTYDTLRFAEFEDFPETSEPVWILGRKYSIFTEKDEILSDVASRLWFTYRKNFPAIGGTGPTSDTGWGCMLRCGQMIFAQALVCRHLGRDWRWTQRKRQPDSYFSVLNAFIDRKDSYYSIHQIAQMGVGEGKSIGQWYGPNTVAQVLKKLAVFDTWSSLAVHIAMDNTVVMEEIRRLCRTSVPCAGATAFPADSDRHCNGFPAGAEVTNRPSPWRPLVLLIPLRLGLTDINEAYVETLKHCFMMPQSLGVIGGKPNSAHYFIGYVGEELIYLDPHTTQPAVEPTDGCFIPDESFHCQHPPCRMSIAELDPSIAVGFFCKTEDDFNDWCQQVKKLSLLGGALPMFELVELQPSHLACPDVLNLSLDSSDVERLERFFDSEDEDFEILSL

[2] = target: Phospholipase A2 (Homo sapiens, UniProt P04054); type: functional;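 note: confirmatory dose-response counterscreen on phospholipase A2, testing hits that came from an ultra-high-throughput screen for ATG4B inhibitors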
Phospholipase A2, sequence (P04054 whole entry): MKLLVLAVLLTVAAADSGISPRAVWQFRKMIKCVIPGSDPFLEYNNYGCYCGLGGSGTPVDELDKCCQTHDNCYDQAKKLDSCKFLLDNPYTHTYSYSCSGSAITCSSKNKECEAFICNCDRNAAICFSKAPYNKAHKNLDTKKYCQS

[3] = Luminescence Cell-Based Dose Retest to Confirm Inhibitors of Cancer Stem Cells. [Related pubchem assays (depositor defined):AID2717, AID2721]; type: functional; conditions: Homo sapiens
[4] = target: T2, Caspase-3 (Homo sapiens, UniProt P42574); type: functional;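 note: Dose-response selectivity test against caspase-3 for candidate inhibitors of sentrin-specific proteases (SENPs)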
T2 sequence (P42574 whole entry): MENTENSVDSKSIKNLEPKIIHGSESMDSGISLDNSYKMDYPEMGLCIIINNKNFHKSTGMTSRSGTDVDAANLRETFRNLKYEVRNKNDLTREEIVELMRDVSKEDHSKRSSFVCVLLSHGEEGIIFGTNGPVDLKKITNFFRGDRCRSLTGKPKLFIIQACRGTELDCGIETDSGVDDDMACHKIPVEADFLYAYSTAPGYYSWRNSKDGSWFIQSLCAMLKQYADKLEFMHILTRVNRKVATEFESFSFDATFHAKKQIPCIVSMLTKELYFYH

[5] = target: T3, Sentrin-specific protease 7 (Homo sapiens, UniProt Q9BQF6); type: functional;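 note: Luminescence-based dose-response confirmation of ultra-high-throughput screening hits, measuring inhibition of SENP7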
T3 sequence (Q9BQF6 whole entry): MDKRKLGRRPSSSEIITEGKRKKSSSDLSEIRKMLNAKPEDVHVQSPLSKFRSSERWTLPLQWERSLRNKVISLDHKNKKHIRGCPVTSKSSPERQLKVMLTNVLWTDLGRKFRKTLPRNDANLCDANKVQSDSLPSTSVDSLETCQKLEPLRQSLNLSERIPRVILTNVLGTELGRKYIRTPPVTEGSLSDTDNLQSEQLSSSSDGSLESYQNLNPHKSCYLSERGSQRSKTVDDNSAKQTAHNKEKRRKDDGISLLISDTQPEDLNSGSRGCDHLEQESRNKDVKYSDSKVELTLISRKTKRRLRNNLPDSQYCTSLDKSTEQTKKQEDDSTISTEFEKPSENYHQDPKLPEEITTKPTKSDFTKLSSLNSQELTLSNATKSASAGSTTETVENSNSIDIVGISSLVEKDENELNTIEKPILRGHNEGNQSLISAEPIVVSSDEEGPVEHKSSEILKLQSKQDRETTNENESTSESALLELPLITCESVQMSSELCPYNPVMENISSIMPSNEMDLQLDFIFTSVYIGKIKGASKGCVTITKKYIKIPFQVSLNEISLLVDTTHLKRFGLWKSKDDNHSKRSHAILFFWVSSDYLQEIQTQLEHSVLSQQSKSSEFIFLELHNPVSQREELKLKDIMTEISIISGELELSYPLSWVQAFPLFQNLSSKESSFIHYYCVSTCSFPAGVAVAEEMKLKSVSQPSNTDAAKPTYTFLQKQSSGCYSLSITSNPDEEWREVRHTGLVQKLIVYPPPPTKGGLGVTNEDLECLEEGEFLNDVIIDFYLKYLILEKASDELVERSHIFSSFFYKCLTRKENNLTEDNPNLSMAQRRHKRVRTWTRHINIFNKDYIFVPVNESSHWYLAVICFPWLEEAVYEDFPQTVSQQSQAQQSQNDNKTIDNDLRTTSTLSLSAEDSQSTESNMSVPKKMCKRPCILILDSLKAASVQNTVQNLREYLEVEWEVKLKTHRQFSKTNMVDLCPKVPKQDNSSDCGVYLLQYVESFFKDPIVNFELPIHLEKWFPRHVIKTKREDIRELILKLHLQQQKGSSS

[6] = target: T4, Sentrin-specific protease 6 (Homo sapiens, UniProt Q9GZR1); type: functional;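 note: Luminescence-based dose-response confirmatory assay of SENP6 inhibition, following up an ultra-high-throughput screen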
T4 sequence (Q9GZR1 whole entry): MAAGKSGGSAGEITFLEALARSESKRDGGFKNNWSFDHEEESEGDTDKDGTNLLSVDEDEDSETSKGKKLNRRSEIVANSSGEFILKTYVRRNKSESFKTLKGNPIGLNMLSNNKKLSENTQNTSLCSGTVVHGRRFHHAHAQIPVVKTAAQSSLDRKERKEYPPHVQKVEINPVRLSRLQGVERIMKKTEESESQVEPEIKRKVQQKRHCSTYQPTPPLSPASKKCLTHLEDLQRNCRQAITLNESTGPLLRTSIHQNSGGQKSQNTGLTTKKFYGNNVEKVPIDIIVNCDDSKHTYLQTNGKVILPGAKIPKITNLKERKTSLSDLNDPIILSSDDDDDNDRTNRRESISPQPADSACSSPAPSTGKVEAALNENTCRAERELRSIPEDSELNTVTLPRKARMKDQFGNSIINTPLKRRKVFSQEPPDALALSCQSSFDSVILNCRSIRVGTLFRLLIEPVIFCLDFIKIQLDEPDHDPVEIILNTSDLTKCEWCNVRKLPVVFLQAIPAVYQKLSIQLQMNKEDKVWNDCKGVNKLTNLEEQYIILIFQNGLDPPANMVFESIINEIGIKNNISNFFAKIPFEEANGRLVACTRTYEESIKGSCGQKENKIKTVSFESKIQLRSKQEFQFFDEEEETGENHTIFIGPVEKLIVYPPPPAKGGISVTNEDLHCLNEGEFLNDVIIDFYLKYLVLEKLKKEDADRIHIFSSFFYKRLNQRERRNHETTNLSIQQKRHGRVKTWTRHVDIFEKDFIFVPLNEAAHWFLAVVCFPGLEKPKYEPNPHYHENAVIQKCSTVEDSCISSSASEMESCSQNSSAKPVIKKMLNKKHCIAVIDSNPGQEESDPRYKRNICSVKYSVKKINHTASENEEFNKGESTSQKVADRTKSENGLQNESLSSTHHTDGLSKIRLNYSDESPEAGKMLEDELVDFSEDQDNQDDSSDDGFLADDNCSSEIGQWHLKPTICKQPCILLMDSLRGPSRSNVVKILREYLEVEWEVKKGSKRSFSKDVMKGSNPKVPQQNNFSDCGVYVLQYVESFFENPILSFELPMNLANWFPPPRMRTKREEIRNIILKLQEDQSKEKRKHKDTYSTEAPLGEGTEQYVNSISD

[7] = target: T5, Sentrin-specific protease 8 (Homo sapiens, UniProt Q96LD8); type: functional;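 note: luminescence read-out of SENP8 inhibition, dose-response confirmation following an ultra-high-throughput screen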
T5 sequence (Q96LD8 whole entry): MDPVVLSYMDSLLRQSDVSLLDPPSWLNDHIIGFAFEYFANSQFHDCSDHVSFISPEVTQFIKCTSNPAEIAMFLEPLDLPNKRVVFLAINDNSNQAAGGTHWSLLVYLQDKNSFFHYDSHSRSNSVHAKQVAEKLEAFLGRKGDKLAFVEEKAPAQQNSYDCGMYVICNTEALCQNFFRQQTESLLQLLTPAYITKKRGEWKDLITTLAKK

[8] = target: Beta-2 adrenergic receptor (Homo sapiens, UniProt P07550); assay: ADRB2 activation measured by internalization – cell-based, FAP fluorogen, flow cytometry, cherry pick 1, dose response (AID 588763); type: functional
Beta-2 adrenergic receptor, sequence (P07550 whole entry): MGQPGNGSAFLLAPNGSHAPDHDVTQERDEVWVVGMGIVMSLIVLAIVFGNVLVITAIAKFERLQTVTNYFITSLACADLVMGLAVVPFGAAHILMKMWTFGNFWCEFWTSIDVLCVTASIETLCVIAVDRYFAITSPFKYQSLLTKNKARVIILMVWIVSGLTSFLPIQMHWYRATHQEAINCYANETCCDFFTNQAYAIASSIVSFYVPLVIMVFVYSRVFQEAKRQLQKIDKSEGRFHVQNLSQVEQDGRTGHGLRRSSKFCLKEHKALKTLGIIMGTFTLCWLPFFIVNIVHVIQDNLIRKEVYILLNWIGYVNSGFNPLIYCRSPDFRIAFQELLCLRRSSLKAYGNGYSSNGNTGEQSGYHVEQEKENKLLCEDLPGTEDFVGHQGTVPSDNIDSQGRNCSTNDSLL

[9] = Luminescence Cell-Based Dose Response to Identify Activators of 5'UTR Stem-Loop Driven Prion Protein mRNA Translation in H4-C Neuroglioblastoma Cells. [Related pubchem assays: 1829 (Project Summary), 1814 (Primary HTS)]; type: functional
[10] = Luminescence Cell-Based Dose Confirmation HTS to Identify Activators of 5'UTR Stem-Loop Driven Alpha-Synuclein mRNA Translation in H4 Neuroglioblastoma Cells. [Related pubchem assays: 1829 (Project Summary), 1814 (Primary HTS)]; type: functional
[11] = Luminescence Cell-Based Dose Response HTS to Identify Activators of Luciferase Translation or Activity in H4 […] Cells. [Related pubchem assays: 1829 (Project Summary), 1814 (Primary HTS)]; type: functional
[12] = test system: Streptococcus sp. 'group A'; assay: Streptococcus pyogenes SK(-)GAS viability under kanamycin – luminescence, BacTiterGlo, confirmation, counter-screen for streptokinase expression inhibitor project, dose response (AID 1900); type: functional, organism-based
[13] = test system: H4; assay: Luminescence Cell-Based Dose Response HTS to Identify Activators of 5'UTR Stem-Loop Driven Prion Protein mRNA Translation in H4 Neuroglioblastoma Cells. [Related pubchem assays: 1829 (Project Summary), 1814 (Primary HTS)]; type: functional; conditions: Homo sapiens
[14] = target: T6, Streptokinase A (Streptococcus pyogenes serotype M1, UniProt P10520); assay: viability-normalized secreted streptokinase activity reduction – plasminogen activation absorbance, OD405, dose response (AID 1914); type: functional, Streptococcus pyogenes M1 GAS;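 note: secreted streptokinase activity via plasminogen activation per viability signal from cell pellet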
T6 sequence (P10520 whole entry): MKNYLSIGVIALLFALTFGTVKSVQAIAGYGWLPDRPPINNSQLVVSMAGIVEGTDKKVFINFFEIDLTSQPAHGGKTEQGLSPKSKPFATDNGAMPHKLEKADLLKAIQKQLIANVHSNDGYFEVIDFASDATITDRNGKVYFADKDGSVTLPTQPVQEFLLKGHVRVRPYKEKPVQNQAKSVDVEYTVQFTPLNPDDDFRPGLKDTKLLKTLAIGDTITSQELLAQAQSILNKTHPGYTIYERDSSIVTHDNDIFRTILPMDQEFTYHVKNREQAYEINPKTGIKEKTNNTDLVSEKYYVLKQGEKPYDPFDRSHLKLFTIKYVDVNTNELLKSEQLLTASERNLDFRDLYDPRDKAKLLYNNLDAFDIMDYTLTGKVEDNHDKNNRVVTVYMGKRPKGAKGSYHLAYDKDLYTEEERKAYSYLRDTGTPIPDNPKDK

[15] = Luminescence Cell-Based Dose Response to Identify Activators of Luciferase Translation or Activity in H4-C Neuroglioblastoma Cells. [Related pubchem assays: 1829 (Project Summary), 1814 (Primary HTS)]; type: functional
[16] = Luminescence Cell-Based Dose Confirmation to Identify Activators of 5'UTR Stem-Loop Driven Alpha-Synuclein mRNA Translation in H4 Neuroglioblastoma Cells. [Related pubchem assays: 1829 (Project Summary), 1814 (Primary HTS)]; type: functional
[17] = test system: Streptococcus; assay: GAS UMAA2166 growth inhibition – luminescence, BacTiterGlo, counter-screen for streptokinase expression inhibitor project, dose response (AID 1915); type: functional, organism-based;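 note: potency for reduction of bacterial viability or growth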
[18] = test system: HeLa; assay: ATP-based viability loss in HeLa cells – cell-based, CellTiter-Glo luminescence, cherry-pick samples, cytotoxicity control for MITF activator project, dose response (AID 540259); type: functional; conditions: Homo sapiens
[19] = target: Dual specificity tyrosine-phosphorylation-regulated kinase 1A (Rattus norvegicus, UniProt Q63470); type: biochemical, Homo sapiens
[20] = target: T7, Long-chain-fatty-acid--AMP ligase FadD28 (Mycobacterium tuberculosis, UniProt P9WQ59); assay: Fluorescence polarization aasay to screen for inhibitors that compete for the binding of FadD28 to a bisubstrate Measured in Biochemical System Using Plate Reader - 2147-01_Inhibitor_Dose_CherryPick_Activity.; type: functional, Mycobacterium tuberculosis H37Rv
T7 sequence (P9WQ59 whole entry): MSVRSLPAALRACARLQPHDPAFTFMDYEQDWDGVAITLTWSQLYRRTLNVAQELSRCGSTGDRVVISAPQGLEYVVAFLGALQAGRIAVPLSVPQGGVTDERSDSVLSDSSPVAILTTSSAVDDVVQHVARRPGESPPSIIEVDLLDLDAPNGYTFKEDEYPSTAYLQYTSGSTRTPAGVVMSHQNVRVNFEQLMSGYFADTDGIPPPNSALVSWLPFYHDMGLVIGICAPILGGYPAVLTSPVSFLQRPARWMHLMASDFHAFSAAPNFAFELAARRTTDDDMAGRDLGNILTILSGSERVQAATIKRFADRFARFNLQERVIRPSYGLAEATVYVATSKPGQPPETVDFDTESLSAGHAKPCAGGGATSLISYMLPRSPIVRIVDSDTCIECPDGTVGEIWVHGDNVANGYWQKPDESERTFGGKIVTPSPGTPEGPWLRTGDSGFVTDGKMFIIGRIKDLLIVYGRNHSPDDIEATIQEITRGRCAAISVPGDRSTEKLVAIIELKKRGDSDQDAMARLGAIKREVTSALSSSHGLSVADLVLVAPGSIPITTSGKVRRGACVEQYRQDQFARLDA

## O=C(O)c1cccc(CSc2nc(-c3ccc(Cl)cc3)cc(C(F)(F)F)n2)c1
[1]
  IC50: 12.8 µM (active)
[2]
  IC50: 11.4 µM (active)

## Cc1ccc(C(=O)Nc2nc(C)c(C(=O)Nc3ccc4c(c3)CCC4)s2)cc1
[3]
  AC50: 458 nM (active)
[4]
  IC50: 19.8 µM (active)
[5]
  IC50: 8.21 µM (active)
[6]
  IC50: > 100 µM (inactive)
[7]
  IC50: > 100 µM (inactive)

## COc1ccc(/C=N/Nc2nncc3ccccc23)c(OC)c1
[4]
  IC50: 7.23 µM (active)
[5]
  IC50: 3.46 µM (active)
[6]
  IC50: 11.1 µM (active)
[7]
  IC50: 44.8 µM (active)

## CCCc1ccc(OCc2nc(-c3ccc(NC(=O)c4ccco4)cc3)no2)cc1
[8]
  EC50: 161 nM (active)

## Cc1cccc2nc(COc3ccc4ccccc4c3Br)cn12
[9]
  EC50: 638 nM (active)
[10]
  EC50: 167 nM (active)
[11]
  EC50: < 100 nM (inconclusive)
[12]
  EC50: 12.7 µM (active)
[13]
  EC50: > 120 µM (not active)
[14]
  EC50: > 150 µM (not active)
[15]
  EC50: 561 nM (active)
[16]
  EC50: 340 nM (active)
[17]
  EC50: > 150 µM (not active)
[18]
  AC50: 73 µM (active)
[8]
  EC50: 3710 nM (active)

## O=C(Cn1cccc1C(=O)c1ccccc1)NCCC1=CCCCC1
[1]
  IC50: 20.1 µM (inactive)
[2]
  IC50: 11.7 µM (active)

## O=C(N/N=C/c1cccc(Oc2ccccc2)c1)c1cccc(O)c1
[4]
  IC50: 31.2 µM (active)
[5]
  IC50: 10.7 µM (active)
[6]
  IC50: 25.7 µM (active)
[7]
  IC50: 24 µM (active)

## Oc1ccc(/C=N/n2c(S)nnc2C2CCCCC2)c(O)c1
[19]
  AC50: 930 nM (active)
[20]
  AC50: 48.8 µM (active)
